Where two headings read alike, the source gives them in different places.

The values below come from patent publication US4894219A, “Beta-agonist carbostyril derivatives, assay method and pharmacological composition” (University of Florida, priority 1988, dated 1990).

One data set relates to ornithine decarboxylase. The data set can be described thus: Induction of ornithine decarboxylase activity in the rat lung. In kind it is in vivo. The following applies: for Fold increase of ornithine decarboxylase activity over the basal level / Ornithine decarboxylase activity: rat lung.
In data set [1] the test system is adenylate cyclase. The data set can be described thus: Stimulation of adenylate cyclase activity in rat reticulocyte membranes. In kind it is biochemical. The following applies: for Intrinsic Activity, adenylate cyclase: as compared to (-)isoproterenol which was set to 1.0, 10 min; for intrinsic activity (efficacy) in words: compared with (-)isoproterenol; for EC50: rat reticulocyte membranes, mean ±SE, n = 3-6, read-out: EC50 (concentration that produced half-maximal enzyme activation), adenylate cyclase. Here is the method: Biochemical Methods. Adenylate Cyclase Activity. Rat reticulocytes were induced and membranes prepared as described by Baker et al, J. Biol. Chem., Vol. 260, p. […] These are the basal conditions. […] At the end of the incubation, 0.3 ml of 10 mM Tris.HCl buffer at pH 7.0 containing 5 mM EDTA was added to each tube and the tubes were placed in a boiling water bath for 5 min. After cooling to room temperature, the tubes were centrifuged for 5 min at 10000 g and the supernatant saved. The cAMP content of the supernatant was determined by a competitive protein binding assay. The amount of cAMP present was calculated from a standard curve determined with unlabeled cAMP. […] Basal and GTP-stimulated activity values were substracted from the values obtained in the presence of ligands and the concentration of ligands that produced half-maximal activity (EC50) were determined by using a dose-effect analysis with an Apple IIe computer. Membrane protein content was determined by the Lowry method with bovine serum albumin as standard.

The target in data set [2] is T1, beta-adrenergic receptor (Rattus norvegicus, UniProt P10608). The data set can be described thus: [^125 I]iodocyanopindolol (CYP) competition binding to the beta-adrenergic receptor in rat reticulocyte membranes. Here is the method: β-Adrenergic Receptor Binding. […] At the end of the incubation, the suspensions were diluted with 4 ml of ice-cold incubation buffer and poured onto Whatman GF/B glass fiber filters under reduced pressure. Each filter was washed with a further 8 ml of ice-cold buffer, placed in a scintillation vial, and counted. Specific binding to the receptor was calculated as the difference between total binding determined in the absence of alprenolol and the nonspecific binding determined in the presence of alprenolol. […] All data was statistically analyzed by using a one-way analysis of variance (ANOVA).
T1 sequence (P10608 whole entry): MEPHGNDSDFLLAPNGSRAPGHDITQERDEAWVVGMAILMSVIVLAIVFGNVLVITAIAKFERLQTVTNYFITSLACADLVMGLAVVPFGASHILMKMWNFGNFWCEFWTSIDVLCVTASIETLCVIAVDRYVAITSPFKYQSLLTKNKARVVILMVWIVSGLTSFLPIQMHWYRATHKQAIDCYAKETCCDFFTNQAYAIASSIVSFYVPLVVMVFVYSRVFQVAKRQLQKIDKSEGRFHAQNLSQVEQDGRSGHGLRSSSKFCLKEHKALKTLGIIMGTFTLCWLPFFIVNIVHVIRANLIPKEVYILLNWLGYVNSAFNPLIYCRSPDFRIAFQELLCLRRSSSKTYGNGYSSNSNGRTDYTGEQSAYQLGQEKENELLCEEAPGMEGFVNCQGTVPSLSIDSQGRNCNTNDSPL

The test system of data set [3] is adenylate cyclase. The data set can be described thus: Time course of cAMP production in rat reticulocytes with propranolol addition (FIG. 3). In kind it is biochemical. The following applies: for cAMP production after propranolol added during incubation: propranolol added after 9 min ((-)isoproterenol) or 7 min (structure 13); for cAMP production, linearity with time: without propranolol; for irreversible binding and response at the beta-adrenergic receptor: conclusion from FIG. 3 and binding data. Here is the method:
Biochemical Methods. Adenylate Cyclase Activity. Rat reticulocytes were induced and membranes prepared as described by Baker et al, J. Biol. Chem., Vol. 260, p. 15820 (1985). […] These are the basal conditions. When stimulation of activity was measured, the assay also contained 0.5 mM GTP and varying concentrations of (-)-isoproterenol or the carbostyril derivatives. At the end of the incubation, 0.3 ml of 10 mM Tris.HCl buffer at pH 7.0 containing 5 mM EDTA was added to each tube and the tubes were placed in a boiling water bath for 5 min. After cooling to room temperature, the tubes were centrifuged for 5 min at 10000 g and the supernatant saved. The cAMP content of the supernatant was determined by a competitive protein binding assay. The amount of cAMP present was calculated from a standard curve determined with unlabeled cAMP. Enzyme activity was linear with time and protein through 10 min and 0.1 mg, respectively. Basal and GTP-stimulated activity values were substracted from the values obtained in the presence of ligands and the concentration of ligands that produced half-maximal activity (EC50) were determined by using a dose-effect analysis with an Apple IIe computer. Membrane protein content was determined by the Lowry method with bovine serum albumin as standard.

The test system of data set [4] is beta-adrenergic receptors. The data set can be described thus: Loss of beta-adrenergic receptors in rat tissues after i.p. injection. In kind it is in vivo. The following applies: for Specific Ligand Binding / % reduction of receptors from controls: 3 hr; for beta-2-receptor selectivity in vivo: receptor loss in rat tissues. The procedure: Rats were injected i.p. with either 2 or 5 mg/kg of structure (13) and 3 hr. later, the tissues were removed and assayed for the beta-adrenergic receptor content.

The target in data set [5] is T1, beta-adrenergic receptor. The data set can be described thus: Washout experiment: irreversible binding after membrane pretreatment with compound 13. The arrangement: membranes prepared from rat reticulocytes; from tissue; host or cells: rat reticulocytes (blood cells), membranes; endogenous receptor. Here is the method:
In the pretreatment experiments, reticulocyte membrane protein (3 mg/ml) was incubated in 50 mM Tris·HCl buffer at pH 7.4, containing 5 mM MgCl2 without and with 20 nM compound 13 for 30 min at 32° C. A parallel incubation was also performed containing 20 nM compound 13 plus 10 μM nadolol. At the end of the incubation the tubes were filled (30 ml) with ice-cold incubation buffer and centrifuged at 48000 g for 15 min. The pellets were washed three more times by centrifugation and resuspension and the final pellets were resuspended in 1 ml of incubation buffer for assay. The membrane content of β-adrenergic receptors was determined with (-)-^125 I]-iodocyanopindolol (10-100 pM) as described above. The binding maximums and dissociation constants (KD) were determined from linear regression analysis of Scatchard plots.
Irreversible binding of compound (13) to the reticulocyte β-adrenergicreceptor was indicated by washout experiments.

For a further data set, the system named is beta-2. The following applies: Yoshizaki et al, J. Med. Chem. 1977; cited from earlier work.
Setting [6] is: 0.1 mg/kg i.p., 3 hours, basal 1.9 + 0.4.
The mark [7] stands for this setting: 0.1 mg/kg plus propranolol (5 mg/kg, 30 min before).
[8] abbreviates: listed as structure wherein X is NHCOCH2 Br.

Take `CC(C)NCC(O)COc1cccc2ccccc12` (stereo not drawn) [propranolol]: in the data set with ornithine decarboxylase (propranolol 5 mg/kg 30 min before (-)isoproterenol or compound 13), the “blocking of ornithine decarboxylase induction” value was “completely blocked”.

`CC(C)(Cc1ccc(N)cc1)NCC(O)c1ccc(O)c2[nH]c(=O)ccc12` (stereo not drawn) [Compound 12]: in the data set on adenylate cyclase [1], the “Intrinsic Activity, adenylate cyclase” value came to 1.0; the “intrinsic activity (efficacy) in words” value is reported as “equal to the intrinsic activity (efficacy) of (-)isoproterenol”; the EC50 was 14.2 ± 4.7 nM. For the same molecule, the IC50 at beta-adrenergic receptor [2] turned out to be 22 ± 3 nM.

On to (-)isoproterenol [reference compound], for which, in the data set with adenylate cyclase [1], the “Intrinsic Activity, adenylate cyclase” value came to 1.0 and the EC50 stood at 226 ± 1.4 nM. Also, the IC50 at beta-adrenergic receptor [2] (read-out: IC50 (concentration that inhibited CYP binding by 50%), rat reticulocyte membranes, mean ±SE, n = 3-6, 60 min) worked out at 327 ± 17 nM. Further, in the data set on ornithine decarboxylase (0.1 mg/kg i.p., 3 hours), the “Fold increase of ornithine decarboxylase activity over the basal level” value (“Fold increase” for short) is on record as 6.5 fold. Also, the Ornithine decarboxylase activity with ornithine decarboxylase (setting [6]) was 11.8 + 1.7 nmol CO2 Formed/g tissue/hr. Besides, in the data set on ornithine decarboxylase (0.1 mg/kg i.p., 3 hours, listed as (-)Isoproterenol), the “Fold increase” value is reported as 6.2 fold. The Ornithine decarboxylase activity in the data set on ornithine decarboxylase (setting [7]) is 0.4 ± 0.09 nmol CO2 Formed/g tissue/hr. Further, in the data set on adenylate cyclase [3], the “cAMP production after propranolol added during incubation” value is listed as “no further cAMP was produced” and the “cAMP production, linearity with time” value was “linear through 14 min”.

For the molecule `CC(C)(Cc1ccc(NC(=O)CBr)cc1)NCC(O)c1ccc(O)c2nc(O)ccc12` (stereo not drawn) [Compound 13], the “loss of receptors in words” value is listed as “no significant loss of receptors” in data set [4] (cerebral cortex, 5 mg/kg) and “no further loss of receptors was detected” in data set [4] (heart or submaxillary gland, 5 mg/kg vs 2 mg/kg). The “Specific Ligand Binding” value in data set [4] (cerebral cortex, 5 mg/kg i.p., control 119 ± 10) came to 114 ± 14 fmol/mg protein; in data set [4] (heart, 2 mg/kg i.p., control 22.3 ± 1.0), 17.1 ± 0.5 fmol/mg protein; in data set [4] (heart, 5 mg/kg i.p., control 22.3 ± 1.0), 18.9 ± 0.8 fmol/mg protein; in data set [4] (lung, 2 mg/kg i.p., control 658 ± 27), 318 ± 23 fmol/mg protein; in data set [4] (lung, 5 mg/kg i.p., control 658 ± 27), 166 ± 9 fmol/mg protein; in data set [4] (spleen, 2 mg/kg i.p., control 53.2 ± 1.8), 31 ± 4 fmol/mg protein. The “Specific Ligand Binding” value was determined as 19 ± 1.2 fmol/mg protein in data set [4] (spleen, 5 mg/kg i.p., control 53.2 ± 1.8); 75 ± 3 fmol/mg protein in data set [4] (submaxillary gland, 2 mg/kg i.p., control 98 ± 5.8); 77 ± 3.7 fmol/mg protein in data set [4] (submaxillary gland, 5 mg/kg i.p., control 98 ± 5.8). Moreover, the “% reduction of receptors from controls” value in data set [4] (heart, 2 mg/kg i.p.) is reported as 23%; in data set [4] (heart, 5 mg/kg i.p.), 15%; in data set [4] (lung, 2 mg/kg i.p.), 52%; in data set [4] (lung, 5 mg/kg i.p.) it was 75%; in data set [4] (spleen, 2 mg/kg i.p.) it was 42%; in data set [4] (spleen, 5 mg/kg i.p.) it was 65%. For the same molecule, the “% reduction of receptors from controls” value is recorded as 23% in data set [4] (submaxillary gland, 2 mg/kg i.p.) and 21% in data set [4] (submaxillary gland, 5 mg/kg i.p.). Also, the “blood brain barrier penetration” value in data set [4] (inferred from lack of receptor loss in cerebral cortex) is given as “cannot cross the blood brain barrier”. Also, the “beta-2-receptor selectivity in vivo” value in data set [4] is “receptor reductions were mainly due to losses of beta-2 receptors”; in data set [4] (setting [8]), “high degree of beta-2-receptor selectivity in vivo”. Further, the “Intrinsic Activity, adenylate cyclase” value with adenylate cyclase [1] was found to be 1.2. For the same molecule, in the data set with adenylate cyclase [1], the “intrinsic activity (efficacy) in words” value is “higher intrinsic activities than (-)isoproterenol”. Also, the EC50 at adenylate cyclase [1] was found to be 8.5 ± 3.5 nM. At beta-adrenergic receptor [2], this molecule showed an IC50 of 5.3 ± 0.8 nM. Moreover, the “Fold increase” value in the data set on ornithine decarboxylase (0.1 mg/kg i.p., 3 hours) was 4.6 fold. Further, the Ornithine decarboxylase activity in the data set with ornithine decarboxylase (setting [6]) is reported as 8.7 + 0.5 nmol CO2 Formed/g tissue/hr; with ornithine decarboxylase (setting [7]), 0.4 ± 0.06 nmol CO2 Formed/g tissue/hr. The “receptor concentration after pretreatment and washout” value at beta-adrenergic receptor [5] (20 nM compound 13, four wash cycles, control 576±22, mean ±SD, n=3) is 168±15 fmol/mg of protein. Besides, the inhibition at 0.02 µM at beta-adrenergic receptor [5] (0.5 h, 20 nM compound 13, four wash cycles, read-out: decrease in the receptor concentration after pretreatment and washout) turned out to be 71%. For the same molecule, the Kd – broadly, a measure of binding affinity in units of concentration – at beta-adrenergic receptor [5] (compound 13 treated membranes (20 nM), control 13±3, read-out: KD value for (-)-[^125 I]iodocyanopindolol binding to the remaining receptors) was determined as 0.011 ± 0.002 nM. The “irreversible binding and response at the beta-adrenergic receptor” value is “irreversibly binds to the beta-adrenergic receptor and produces an irreversible response” in the data set with adenylate cyclase [3]; “appears to bind irreversibly to the receptor and produce irreversible agonist effects” in the data set with adenylate cyclase [3] (setting [8]). Besides, the “cAMP production after propranolol added during incubation” value in the data set on adenylate cyclase [3] was “no change in the rate of cAMP production occurred”. Also, the “cAMP production with propranolol added at time 0” value in the data set on adenylate cyclase [3] (propranolol added with structure 13 at time 0) is “stimulation of cAMP production was blocked”. In addition, the “cAMP production, linearity with time” value in the data set with adenylate cyclase [3] is listed as “linear through 14 min”.

As to `CC(C)(Cc1ccc(I)cc1)NCC(O)c1ccc(O)c2[nH]c(=O)ccc12` (stereo not drawn) [Compound 11, 5-[2-[[1-(4-Iodophenyl)-2-methylprop-2-yl]amino]-1-hydroxyethyl]-8-hydroxycarbostyril], in the data set with adenylate cyclase [1], the “Intrinsic Activity, adenylate cyclase” value is given as 1.3; the “intrinsic activity (efficacy) in words” value is on record as “higher intrinsic activities than (-)isoproterenol”; the EC50 came out at 5.6 ± 1.4 nM. In addition, on beta-adrenergic receptor [2], the IC50 is 7.6 ± 1.3 nM.

As to `CC(C)(C)NCC(O)COc1cccc2c1CC(O)C(O)C2` (stereo not drawn) [nadolol, reference compound], the “prevention of loss of specific binding sites by nadolol” value at beta-adrenergic receptor [5] (nadolol 10 μM in preincubation with compound 13) is given as “the loss of specific binding sites was completely prevented”.

`CC[C@H](NC(C)C)[C@H](O)c1ccc(O)c2[nH]c(=O)ccc12` (relative stereo) [procaterol, erythro-5-(1-hydroxy-2-isopropylaminobutyl)-8-hydroxycarbostyril]: the “beta-2 agonist and bronchodilator activity in words” value in the data set on beta-2 is “potent beta-2 agonist and a bronchodilator”.
